Assay results: publication PMC11653702, “Targeting the SPC25/RIOK1/MYH9 Axis to Overcome Tumor Stemness and Platinum Resistance in Epithelial Ovarian Cancer” (Advanced Science, 2024)
Several values for one entry are separate records, joined by “and”; a condition that tells them apart may be missing. Identical values can stand only once.

Legend:
OVCAR3 cells [1] = assay: Intraperitoneal tumor model, bioluminescence, OVCAR3; assay type: in vivo, human EOC cells in BALB/c-Nude mice; settings: SPC25-overexpressing OVCAR3, 6 weeks CDDP
Excerpt: (§1) Subsequently, we selected 4 representative EOC cell lines (Figure S1F,G, Supporting Information) and validated the role of SPC25 in mediating platinum resistance in EOC through a series of in vitro and in vivo experiments. […] To further establish an EOC mouse model, we intraperitoneally injected BALB/c‐Nude mice with EOC cells with stable luciferase expression. CDDP treatment (three times per week, a week as a cycle) was initiated when the bioluminescence signal reached 2 × 10^7 p/s/cm^2/sr.
(§2) In the intraperitoneal tumor model, 1 × 10^6 of the indicated cells stably expressing luciferase were injected intraperitoneally into the mice. Treatment with saline (Vehicle), CDDP (5 mg/kg, 3 times per week for 1 week), CBP1 (10 mg/kg, once in 2 days), or a combination of CDDP (5 mg/kg, 3 times per week for 1 week) and CBP1 (10 mg/kg, once in 2 days) was initiated when the bioluminescence signal reached 2 × 10^7 p/s/cm^2/sr for 6 weeks of continuous treatment cycles. The mice were sacrificed when they became moribund, as determined by an observer blinded to the treatment. Finally, their tumors were excised for qRT‐PCR and Western blotting.

SKOV3 cells [2] = assay: Cell Counting Kit-8 viability, SKOV3; assay type: cell-based, human; settings: SPC25-silenced SKOV3
Method: Cell Viability Assay: The indicated cells were seeded into 96-well plates at a density of 4 × 10^3 cells per well. Next, the Cell Counting Kit-8 reagent (Dojindo) was added to the wells, followed by incubation at 37°C for 2 h in the dark, after which the optical density at 450 nm was determined on a microplate reader (EPOCH2; BioTek, USA). Each cell line was represented using triplicate wells, and the experiment was repeated three times.

COV644 cells = assay: Annexin V/PI apoptosis, COV644; assay type: cell-based, human; settings: for PI+/AnnexinV+: replicates #1-#3
Method: (§3) Fluorescence-Activated Cell Sorting Assay: For apoptosis analysis, we used an Annexin V-FITC/PI Apoptosis Detection Kit (#A211-01; Vazyme Biotech), according to the manufacturer’s instructions. We considered the total proportion of Annexin V-positive cells (quadrants II and III) to be the apoptotic rate, regardless of the PI status. All samples were analyzed on a flow cytometer (cytoFLEX LX; Beckman Coulter, Indianapolis, IN, USA), and percentages of apoptotic cells were analyzed using CytExpert (Beckman Coulter).

SKOV3 cells [3] = assay: Annexin V/PI apoptosis, SKOV3; assay type: cell-based, human; settings: replicates #1-#3
Method: as §3

[4] = system: OVCAR8 xenografted tumor tissues; assay: TUNEL assay in intraperitoneal xenografted tumor tissues, OVCAR8; assay type: in vivo, human EOC cells in BALB/c-Nude mice; settings: for TUNEL+ cell (%): #1-#6; for TUNEL assay: animal model OVCAR8
Method: as §2
(§4) TUNEL Assay: The TUNEL staining procedure was conducted on the DeadEnd Fluorometric TUNEL System (#G3250; Promega), according to the manufacturer’s instructions. In brief, paraffin-embedded sections were baked at 65°C for 60 min, followed by three washes in a xylene bath. The sections were then washed in a series of absolute ethanol, 95% ethanol, and 70% ethanol, and finally, in PBS. Then, each section was treated with proteinase K at 37°C for 30 min and washed three times with PBS. Thereafter, the sections were incubated with […] (containing Biotin-11-dUTP and TdT Enzyme) at 37 ℃ for 1 h in the dark, followed by three PBS washes. The samples were subsequently incubated with streptavidin–fluorescein at 37 ℃ for 30 min in the dark, followed by three washes with PBS. DAPI was used to stain the nucleus. Finally, the experimental outcomes were observed under a fluorescence microscope, and the percentages of TUNEL-positive cells were quantified from 10 randomly selected fields.

OVCAR8 cells [5] = assay: Intraperitoneal tumor model, bioluminescence, OVCAR8; assay type: in vivo, human EOC cells in BALB/c-Nude mice; settings: SPC25-silenced OVCAR8, CDDP
Excerpt: as §1, §2

OVCAR8 cells [6] = assay: Annexin V/PI apoptosis, OVCAR8; assay type: cell-based, human; settings: replicates #1-#3
Method: as §3

[7] = system: OVCAR3 xenografted tumor tissues; assay: TUNEL assay in intraperitoneal xenografted tumor tissues, OVCAR3; assay type: in vivo, human EOC cells in BALB/c-Nude mice; settings: for TUNEL+ cell (%): CDDP-treated mice, #1-#6
Method: as §2, §4

OVCAR3 cells [8] = assay: Survival of intraperitoneal tumor-bearing nude mice, OVCAR3; assay type: in vivo, human EOC cells in BALB/c-Nude mice
Excerpt: as §1, §2

SPC25 = assay: Expression of SPC25 across different generation CDX tumor of Blab/c Nude mice in CDDP group (Ct); assay type: in vivo; settings: for Gapdh (Ct): Gapdh_rep1-3, single replicates; for Expression of SPC25 (Ct): SPC25_rep1-3, single replicates
Excerpt: Supplement ADVS-11-2406688-s001.zip/SourceData.xlsx, sheet "Fig1E-1G,S1F" | column: Expression of SPC25 in CDDP-resistant and Parental CDX tumor of Blab/c Nude mice (Ct)

OVCAR3 cells [9] = assay: Annexin V/PI apoptosis, OVCAR3; assay type: cell-based, human; settings: for PI+/AnnexinV+: replicates #1-#3
Method: as §3

[10] = SPC25-overexpressing OVCAR3, CDDP

SMILES: [NH2][Pt]([NH2])([Cl])[Cl] [CDDP, cisplatin]
- CDDP resistance of tumors (OVCAR3 cells [1]): notable increase in CDDP resistance
- CDDP sensitivity (SKOV3 cells [2]): enhanced CDDP sensitivity
- PI+/AnnexinV+ (COV644 cells; COV644 SPC25, CDDP 10μM): 9.53 and 5.89 and 7.71
- PI+/AnnexinV+ (COV644 cells; COV644 Vector, CDDP 10μM): 23.38 and 26.97 and 27.94
- CDDP-induced apoptosis (COV644 cells; SPC25-overexpressing COV644): considerably reduced
- PI+/AnnexinV+ (SKOV3 cells [3]; SKOV3 Scramble, CDDP 10μM): 8.18 and 6.89 and 9.75
- PI+/AnnexinV+ (SKOV3 cells [3]; SKOV3 sh-SPC25#1, CDDP 10μM): 30.36 and 26.95 and 22.58
- PI+/AnnexinV+ (SKOV3 cells [3]; SKOV3 sh-SPC25#2, CDDP 10μM): 29.63 and 24.64 and 23.77
- TUNEL+ cell (%) ([4]; OVCAR8 sh-SPC25#1, CDDP-treated mice): 27.13% and 29.66% and 28.67% and 22.53% and 32.03% and 26.06%
- TUNEL+ cell (%) ([4]; OVCAR8 sh-Scramble, CDDP-treated mice): 5.89% and 11.46% and 4.76% and 9.62% and 7.34% and 8.41%
- TUNEL assay ([4]; animal #1): 10.02%
- TUNEL assay ([4]; animal #2): 8.97%
- TUNEL assay ([4]; animal #3): 6.23%
- TUNEL assay ([4]; animal #4): 11.92%
- TUNEL assay ([4]; animal #5): 7.56%
- TUNEL assay ([4]; animal #6): 8.03%
- TUNEL assay ([4]; animal #7): 7.63%
- CDDP sensitivity, apoptotic index and survival (OVCAR8 cells [5]): increase in CDDP sensitivity and apoptotic index, as well as prolonged survival
- PI+/AnnexinV+ (OVCAR8 cells [6]; OVCAR8 Scramble, CDDP 10μM): 7.42 and 8.61 and 9.34
- PI+/AnnexinV+ (OVCAR8 cells [6]; OVCAR8 sh-SPC25#1, CDDP 10μM): 24.86 and 27.38 and 21.74
- PI+/AnnexinV+ (OVCAR8 cells [6]; OVCAR8 sh-SPC25#2, CDDP 10μM): 24.57 and 21.02 and 29.26
- TUNEL+ cell (%) ([7]; OVCAR3 SPC25-overexpressing): 8.84% and 3.44% and 6.27% and 4.43% and 7.25% and 8.02%
- TUNEL+ cell (%) ([7]; OVCAR3 Vector): 31.16% and 27.27% and 21.88% and 26.01% and 32.74% and 29.56%
- TUNEL-positive cells [7, 10]: reduced number
- Survival, days after CDDP treatment (OVCAR3 cells [8]; OVCAR3 SPC25-overexpressing, status 1, individual mice): 50 days and 52 days and 51 days and 55 days and 62 days
- Survival, days after CDDP treatment (OVCAR3 cells [8]; OVCAR3 Vector, status 0, individual mice): 70 days and 64 days and 82 days and 85 days
- Survival, days after CDDP treatment (OVCAR3 cells [8]; OVCAR3 Vector, status 1, individual mice): 58 days and 62 days
- survival of tumor-bearing mice (OVCAR3 cells [8]; [10]): decreased survival
- Gapdh (Ct) (SPC25; 1st generation): 17.013 Ct and 17.354 Ct and 17.197 Ct
- Expression of SPC25 (Ct) (SPC25; 1st generation): 27.496 Ct and 27.737 Ct and 27.628 Ct
- Gapdh (Ct) (SPC25; 2nd generation): 16.968 Ct and 16.875 Ct and 17.154 Ct
- Expression of SPC25 (Ct) (SPC25; 2nd generation): 26.835 Ct and 27.032 Ct and 26.963 Ct
- Gapdh (Ct) (SPC25; 3rd generation): 16.826 Ct and 17.002 Ct and 16.952 Ct
- Expression of SPC25 (Ct) (SPC25; 3rd generation): 26.448 Ct and 26.397 Ct and 26.314 Ct
- Gapdh (Ct) (SPC25; 4th generation): 16.654 Ct and 16.763 Ct and 16.924 Ct
- Expression of SPC25 (Ct) (SPC25; 4th generation): 25.574 Ct and 25.623 Ct and 25.706 Ct
- PI+/AnnexinV+ (OVCAR3 cells [9]; OVCAR3 SPC25, CDDP 10μM): 9.75 and 8.73 and 6.45
- PI+/AnnexinV+ (OVCAR3 cells [9]; OVCAR3 Vector, CDDP 10μM): 21.37 and 25.13 and 28.24
- CDDP-induced apoptosis (OVCAR3 cells [9]; SPC25-overexpressing OVCAR3): considerably reduced
